# Source: US11858958B2, “Blank liposome with ginsenoside Rg3 or its analog as membrane materials and preparations and uses thereof” (Shanghai Ginsome Pharmatech Co., Ltd., priority 2018, dated 2024)
# Tested on: human breast cancer cell line (4T1)
# Assay: In vitro cytotoxicity studies (DTX groups)
# Format: cell-based
# Description: For each concentration group, 4 replicates were set up. The whole experiment was independently repeated 3 times.
# The in vitro cytotoxicity was evaluated using human breast cancer cell line (4T1).
smiles,measurement,setting,value
"CC(=O)O[C@@]12CO[C@@H]1C[C@H](O)[C@@]1(C)C(=O)[C@H](O)C3=C(C)[C@@H](OC(=O)[C@H](O)[C@@H](NC(=O)OC(C)(C)C)c4ccccc4)C[C@@](O)([C@@H](OC(=O)c4ccccc4)[C@H]21)C3(C)C [DTX, docetaxel]",Cell viability(%),"4T1, Concentration 3.84E−05 μg/ml",83.55%
same,Cell viability(%),"4T1, Concentration 7.68E−06 μg/ml",86.66%
same,viability at 0.00019 µg/mL,"Homo sapiens, 4T1, Concentration 0.00019 μg/ml",72.5%
same,viability at 0.00096 µg/mL,"Homo sapiens, 4T1, Concentration 0.00096 μg/ml",61.6%
same,viability at 0.0048 µg/mL,"Homo sapiens, 4T1, Concentration 0.0048 μg/ml",50.9%
same,viability at 0.024 µg/mL,"Homo sapiens, 4T1, Concentration 0.024 μg/ml",49.9%
same,viability at 0.12 µg/mL,"Homo sapiens, 4T1, Concentration 0.12 μg/ml",46.3%
same,viability at 0.6 µg/mL,"Homo sapiens, 4T1, Concentration 0.6 μg/ml",48.9%
same,viability at 3 µg/mL,"Homo sapiens, 4T1, Concentration 3 μg/ml",51.9%
